# Data reported in patent US7629375B2, “Cytoprotective compounds, pharmaceutical and cosmetic formulations, and methods” (Johnson & Johnson Consumer Companies, Inc., priority 2001, dated 2009).
# Test system: neonatal cardiomyocytes
# Experiment: Myocyte calcium-contractility assay
# Type: cell-based, rat
# Conditions: anaerobic chamber 16 hours in DMEM 1 mM glucose, reoxygenation two hours
# Protocol: A. Isolation and Culture of Primary Neonate Myocytes.
# The following materials are employed: • 10× Heart Dissection Solution (HDS) contains the following components (g/l) in tissue grade water: NaCl, 68; HEPES, 47.6; NaH2PO4, 2; Glucose, 10; KCl, 4; MgSO4, 1, pH adjusted to 7.4. Prior to filter sterilization of diluted (1×HDS) solution, 10 mg phenol red is added to each 500 milliliters of medium. • Transferrin and Bovine Insulin (available from Life Technologies) are resuspended at a concentration of 4 mg/ml in tissue culture grade water. • DMEM-F12—DMEM/F12, powder, 1:1 containing glutamine and pyridoxine hydrochloride (available from Life Technologies). To one liter equivalent of the powder is added 2.43 g of sodium bicarbonate and 10 ml of 100× Penicillin/Streptomycin in 950 ml of tissue culture grade water with stirring. The pH is adjusted to 7.2 with 1M HCl and volume adjusted to 1 liter. The solution is filter sterilized, followed by the addition of 2.5 ml of 4 mg/ml Transferrin, 250 μl 4 mg/ml Insulin and 30.7 mg of bromodeoxyuridine. • DMEM-F12-5% FBS is also prepared for pre-coating the tissue culture plates and initial suspension of the cardiomyocyte pellet. • Collagenase solution-57.1 mg of collagenase is resuspended in 140 ml 1×HDS.
# Tissue culture ware is pre-coated with DMEM-F12-5% FBS by incubating […] per well of a 96-well plate and 0.5 ml per 24-well plate at 37° C.
# Two-day old rat pups are removed from their mothers and placed in a sterile container. Pups are dipped quickly into 70% alcohol, then decapitated and the body placed in an empty sterile tissue culture dish. An incision is made starting at the neck and progressing towards the belly, cutting through the sternum. The heart is removed and placed in a tissue culture dishes containing 1×HDS. The atria are trimmed, and the remaining ventricles are placed into a separate tissue culture dish containing 1×HDS, where they are sectioned into 3-4 pieces each. Ventricles are then transferred to a sterile 250 ml glass flask and the 1×HDS is removed. Twenty milliliters of pre-warmed collagenase solution is added to the ventricles, followed by incubation at 37° C. with shaking. After 20 minutes, the collagenase solution is removed and replaced with 20 ml fresh pre-warmed collagenase. Incubation is continued for an additional 20 minutes. At the end of the incubation, any tissue chunks are allowed to settle prior to removing the collagenase (containing the isolated cardiomyocytes) from the disrupted tissue pieces. The isolated myocytes are added to a 50 ml Falcon tube containing 2 ml Fetal Bovine Serum (FBS). The remaining tissue pieces are subjected to a second digestion by adding 20 ml fresh pre-warmed collagenase and incubating as above for 20 minutes. This second digest is then centrifuged at 1000 rpm for 5 minutes (tabletop centrifuge). The resulting supernatant is discarded, and the cell pellet is suspended with 4 ml FBS. The resulting cell suspension is placed in the incubator at 37° C. This step is repeated several additional times to harvest additional material.
# Percoll gradients are prepared by adding 2.5 ml of 10×HDS to 22.5 ml of Percoll (Life Technologies) with mixing (Percoll Stock). Top Gradient solution (11 ml Percoll Stock and 14 ml 1×HDS) and Bottom Gradient solution (13 ml Percoll Stock and 7 ml 1×HDS) are prepared. Four milliliters of the Top Gradient solution is transferred into 6×15 ml sterile Falcon tubes. Three milliliters of the Bottom Gradient solution is placed in each tube by inserting a serological pipette to the bottom of the tube and slowly adding the liquid.
# All the digests (6) are pooled in one 50 ml Falcon tube and centrifuged on a tabletop centrifuge at 1000 rpm for 10 minutes. The supernatant is discarded, and the cell pellet is resuspended in 12 ml of 1×HDS. Two milliliters of the cell suspension is added to the top of each gradient. […]
row,SMILES,calcium transients (Fluo-4) in amounts indicative of ability guard against ischemic damage and maintain contractile function
1,"COC(=O)c1ccc(C=Cc2cc(C)c(O)c(C)c2)cc1 [4-[2-(4-hydroxy-3,5-dimethyl-phenyl)-vinyl]-benzoic acid methyl ester]",presence of calcium transients
2,"COc1cc(C=Cc2ccc(C#N)cc2)cc(CC=C(C)CCC=C(C)C)c1O [4-{2-[3-(3,7-dimethyl-octa-2,6-dienyl)-4-hydroxy-5-methoxy-phenyl]-vinyl}-benzonitrile]",presence of calcium transients
3,"COCOc1cc(C=Cc2ccc([N+](=O)[O-])cc2)c(CC=C(C)C)c(OCOC)c1 [1,5-bis-methoxymethoxy-2-(3-methyl-but-2-enyl)-3-[2-(4-nitro-phenyl)-vinyl]-benzene]",presence of calcium transients
4,"O=C1c2ccccc2C(=O)c2cc(C=Cc3ccc(O)c(O)c3)ccc21 [2-[2-(3,4-dihydroxy-phenyl)-vinyl]-anthraquinone]",presence of calcium transients
5,"Oc1cc(-c2ccc(C=Cc3ccc(O)c(O)c3)cc2)n[nH]1 [4-{2-[4-(5-hydroxy-1H-pyrazol-3-yl)-phenyl]-vinyl}-benzene-1,2-diol]",presence of calcium transients
6,"O=[N+]([O-])c1ccc(C=Cc2cc(O)cc(O)c2)cc1 [5-[2-(4-nitro-phenyl)-vinyl]-benzene-1,3-diol]",presence of calcium transients
7,"COCOc1cc(C=Cc2ccc(C(=O)OC)cc2)cc(CC=C(C)C)c1OCOC [4-{2-[3,4-bis-methoxymethoxy-5-(3-methyl-but-2-enyl)-phenyl]-vinyl}-benzoic acid methyl ester]",presence of calcium transients
8,"COCOc1cc(C=Cc2ccc([N+](=O)[O-])cc2)cc(OCOC)c1 [1,3-bis-methoxymethoxy-5-[2-(4-nitro-phenyl)-vinyl]-benzene]",presence of calcium transients
9,COc1cc(C=Cc2ccc([N+](=O)[O-])cc2)cc(Br)c1O [2-bromo-6-methoxy-4-[2-(4-nitro-phenyl)-vinyl]-phenol],presence of calcium transients
10,"COCOc1cc(C=Cc2ccc([N+](=O)[O-])cc2)cc(CC=C(C)C)c1OCOC [1,2-bis-methoxymethoxy-3-(3-methyl-but-2-enyl)-5-[2-(4-nitro-phenyl)-vinyl]-benzene]",presence of calcium transients
11,"COCOc1ccc(C=Cc2ccc(C(=O)OC)c(C(=O)OC)c2)cc1OCOC [4-[2-(3,4-bis-methoxymethoxy-phenyl)-vinyl]-phthalic acid dimethyl ester]",presence of calcium transients
12,"COCOc1c(CC=C(C)CCC=C(C)C)cc(C=Cc2ccc(C#N)cc2)cc1OC [4-{2-[3-(3,7-dimethyl-octa-2,6-dienyl)-5-methoxy-4-methoxymethoxy-phenyl]-vinyl}-benzonitrile]",presence of calcium transients
13,"COCOc1ccc(C=Cc2ccnc(-c3cc(C)ccn3)c2)cc1OCOC [4-[2-(3,4-bis-methoxymethoxy-phenyl)-vinyl]-4′-methyl-[2,2′]bipyridinyl]",presence of calcium transients
14,"Cc1cc(C=Cc2ccc([N+](=O)[O-])cc2)cc(C)c1O [2,6-dimethyl-4-[2-(4-nitro-phenyl)-vinyl]-phenol]",presence of calcium transients
15,"COc1cc(C=CC=Cc2ccc([N+](=O)[O-])cc2)ccc1O [2-methoxy-4-[4-(4-nitro-phenyl)-buta-1,3-dienyl]-phenol]",presence of calcium transients
16,"COCOc1ccc(C=Cc2nccs2)cc1OCOC [2-[2-(3,4-bis-methoxymethoxy-phenyl)-vinyl]-thiazole]",presence of calcium transients
17,COCOc1c(CC=C(C)C)cc(C=Cc2ccc(C(=O)OC)cc2)cc1OC [4-{2-[3-methoxy-4-methoxymethoxy-5-(3-methyl-but-2-enyl)-phenyl]-vinyl}-benzoic acid methyl ester],presence of calcium transients
18,"O=C(O)c1ccc(C=Cc2ccc(O)c(O)c2)cc1 [4-[2-(3,4-dihydroxy-phenyl)-vinyl]-benzoic acid]",presence of calcium transients
19,"COCOc1ccc(/C=C/c2ccc(C(=O)N(CCO)CCO)cc2)cc1OCOC [4-[2-(3,4-bis-methoxymethoxy-phenyl)-vinyl]-N,N-bis-(2-hydroxy-ethyl)-benzamide]",presence of calcium transients
20,COC(=O)c1ccc(C=Cc2ccc(C)s2)cc1 [4-[2-(5-methyl-thiophen-2-yl)-vinyl]-benzoic acid methyl ester],presence of calcium transients
21,"COCOc1ccc(C=C2SC(=O)NC2=O)cc1OCOC [5-(3,4-bis-methoxymethoxy-benzylidene)-thiazolidine-2,4-dione]",presence of calcium transients
